This note sets out measurements from patent US20230159486A1, “SUBSTITUTED THIOPHENECARBOXAMIDES AND ANALOGUES AS ANTIBACTERIALS AGENTS” (Bayer Aktiengesellschaft, priority 2018, published 2023).

Where a name gives a salt, the structure may show the parent alone. Marks after values point to notes of the source that are not given here. Some results are limits rather than exact numbers.

In data set [1] the test system is Xanthomonas campestris pv. campestris. Description: Xanthomonas campestris pv. campestris in vitro cell test (bacteria growth in liquid culture). It is filed as cell-based. The settings on record: 20 ppm of tested compound, 24 h of incubation. On the procedure:
Culture medium: LB broth medium (Luria Broth Miller) Sigma
Inoculum: bacteria suspension
Compounds to be tested were solubilized in DMSO and the solution used to prepare the required range of concentrations. The final concentration of DMSO used in the assay was ≤1%.
Inoculum was prepared from a pre-culture of bacteria grown in liquid medium and diluted to the desired optical density (OD).
Compounds were evaluated for their ability to inhibit bacteria growth in liquid culture assay. The compounds were added in the desired concentrations to culture medium containing the bacteria suspension. After 24 h of incubation, the efficacy of compounds was determined by spectrometric measurement of bacteria growth. Inhibition was determined by comparing the absorbance values in wells containing the compounds with the absorbance in control wells without compounds.

A short description of data set [2]: Log P by HPLC on reversed phase columns (EEC directive 79/831 Annex V.A8). The class given is physicochemical. On the procedure: In the above tables, measurement of Log P values was performed according to EEC directive 79/831 Annex V.A8 by HPLC (High Performance Liquid Chromatography) on reversed phase columns with the following methods: • ^[a]
If more than one Log P value is available within the same method, all the values are given and separated by “+”.
Calibration was done with straight-chain alkan2-ones (with 3 to 16 carbon atoms) with known Log P values (measurement of Log P values using retention times with linear interpolation between successive alkanones). Lambda-max-values were determined using UV-spectra from 200 nm to 400 nm and the peak values of the chromatographic signals.

In data set [3] the test system is Xanthomonas campestris pv. campestris. Description: In vivo preventive test on Xanthomonas campestris pv. campestris (black rot on cabbage). The note with it: comparative Example C, same conditions as described in Example B; concentration not given. On the procedure:
The tested compounds were prepared by homogenization in a mixture of acetone/Dimethyl sulfoxide/Tween®, and then diluted with water to obtain the desired concentration.
The young plants of cabbage were treated by spraying the compound prepared as described above. Control plants were treated only with an aqueous solution of acetone/Dimethyl sulfoxide/Tween®.
After 72 hours, the plants were contaminated by spraying the leaves with an aqueous bacteria suspension of Xanthomonas campestris pv. campestris. The contaminated cabbage plants were incubated for 8 or 10 days at 27° C. at 95% relative humidity.
The test was evaluated 8 or 10 days after the inoculation. 0% means an efficacy which corresponds to that of the control plants while an efficacy of 100% means that no disease was observed.
Compounds CMP1 and CMP2 were tested in an in vivo preventive test on Xanthomonas campestris pv. campestris (black rot on cabbage) in the same conditions as described in Example B.
Compounds CMP1 and CMP2 were prepared in accordance with the teaching of U.S. Pat. No. 5,534,541.

[4] abbreviates: reversed phase HPLC columns, method [a]: LC-UV, acidic range, 0.1% formic acid in water and acetonitrile.
Setting [5] is: reversed phase HPLC columns, value of the preparation example, method not marked.

Regarding `C=CCOC(=O)CNC(=O)c1sc(Cl)c(Cl)c1Cl` [II.22], the “direct activity (inhibition of bacteria growth)” value in data set [1] is “no direct activity”. Besides, the LogP in data set [2] was 3.64^[a].

On to `O=C(NC(C(=O)O)C1CC1)c1sc(Cl)c(Cl)c1Cl` (racemic) [II.33], for which, in data set [2], the LogP was 2.83^[a].

Regarding `COC(=O)C(NC(=O)c1sc(Cl)c(Cl)c1Cl)C(C)C` (stereo not shown) [CMP2, reference compound], the “Efficacy (%)” value in data set [3] came to 0%.

With `CCOC(=O)[C@@H](CC(C)C)NC(=O)c1sc(Cl)c(Cl)c1Cl` [II.27], in data set [2], the LogP was 5.20^[a].

Consider `CCOC(=O)C1(NC(=O)c2sc(Cl)c(Cl)c2N)CC1` [XVIIc.01, ethyl 1-{[(3-amino-4,5-dichloro-2-thienyl)carbonyl]amino}cyclopropanecarboxylate], for which the chromatographic logP in data set [2] (setting [4]) and in data set [2] (setting [5]) was 2.77 throughout.

On to `CC[C@H](C)[C@H](NC(=O)c1sc(Cl)c(Cl)c1Cl)C(=O)O` [II.30], for which the LogP in data set [2] is 3.69^[a].

On to `Nc1c(C(=O)O)sc(Cl)c1Cl` [XIXc.01, 3-amino-4,5-dichlorothiophene-2-carboxylic acid hydrochloride (1:1)], for which the chromatographic logP (as a rule, lipophilicity estimated from chromatographic retention) in data set [2] (method [a]: LC-UV, acidic range, 0.1% formic acid in water and acetonitrile) amounted to 2.05.

For the compound `CC/C=C\CCOC(=O)CNC(=O)c1sc(Cl)c(Cl)c1Cl` [II.17], in data set [1], the “direct activity (inhibition of bacteria growth)” value is listed as “no direct activity”. Moreover, the LogP in data set [2] was 4.69^[a].

Regarding `CCCOC(=O)CNC(=O)c1sc(Cl)c(Cl)c1Cl` [II.10], in data set [1], the “direct activity (inhibition of bacteria growth)” value is “no direct activity”. Besides, the LogP in data set [2] is 3.70^[a].

For `O=C(CNC(=O)c1sc(Cl)c(Cl)c1Cl)OCC1CC1` [II.18], in data set [1], the “direct activity (inhibition of bacteria growth)” value is listed as “no direct activity”. In data set [2], the LogP was 3.81^[a].

Turning to `COC(=O)CNC(=O)c1sc(Cl)c(Cl)c1Cl` [II.01, methyl N-[(3,4,5-trichloro-2-thienyl)carbonyl]glycinate], in data set [3], the “Efficacy (%)” value was above 90%. Further, in data set [1], the “direct activity (inhibition of bacteria growth)” value is on record as “no direct activity”. Also, the chromatographic logP in data set [2] (setting [4]) was 2.83; in data set [2] (setting [5]), 2.8.

On to `COC(=O)CNC(=O)c1sc(Br)c(Br)c1Br` [CMP1, reference compound], for which the “Efficacy (%)” value in data set [3] stood at 27%.

Regarding `CCOC(=O)CNC(=O)c1scc(Cl)c1Cl` [XVIa.01], the LogP in data set [2] is 2.40^[a].

Consider `O=C(NC(C(=O)O)C1CC1)c1cc(Cl)c(Cl)s1` (racemic) [XVIc.05], for which the LogP in data set [2] is 2.33^[a].

`CCOC(=O)C1(NC(=O)c2scc(Cl)c2Cl)CC1` [XVIa.03]: the LogP in data set [2] was 2.59^[a].

In the case of `COC(=O)C1(NC(=O)c2cc(Cl)c(Cl)s2)CC1` [XVIc.01], the LogP in data set [2] is 2.49^[a].

For the compound `COC(=O)C(NC(=O)c1cc(Cl)c(Cl)s1)C1CC1` (racemic) [XVIc.03], the LogP in data set [2] was 2.98^[a].

Regarding `CCOC(=O)[C@H](CC(C)C)NC(=O)c1sc(Cl)c(Cl)c1Cl` [II.28], the LogP in data set [2] was 5.16^[a].

`CC(C)COC(=O)CNC(=O)c1sc(Cl)c(Cl)c1Cl` [II.19]: in data set [1], the “direct activity (inhibition of bacteria growth)” value is “no direct activity”. Further, in data set [2], the LogP was 4.13^[a].

As for `CC(C)(C)OC(=O)CNC(=O)c1sc(Cl)c(Cl)c1Cl` [II.24], the “direct activity (inhibition of bacteria growth)” value in data set [1] is “no direct activity”. Further, the LogP in data set [2] was 4.27^[b].

With `CCOC(=O)C1(NC(=O)c2sc(Cl)c(Cl)c2Cl)CC1` [II.02, ethyl 1-{[(3,4,5-trichloro-2-thienyl)carbonyl]amino}cyclopropanecarboxylate], the “direct activity (inhibition of bacteria growth)” value in data set [1] is “no direct activity”. For the same compound, the values for the chromatographic logP in data set [2] (setting [4]) and in data set [2] (setting [5]) were 3.41 and 3.4, respectively.

For `CC[C@H](C)[C@H](NC(=O)c1sc(Cl)c(Cl)c1Cl)C(=O)OC` [II.14], the “Efficacy (%)” value in data set [3] is above 90%. In data set [1], the “direct activity (inhibition of bacteria growth)” value was “no direct activity”. Besides, in data set [2], the LogP is 4.82^[a].

With `COC(=O)C(NC(=O)c1sc(Cl)c(Cl)c1Cl)C1CC1` (racemic) [II.06], the “Efficacy (%)” value in data set [3] was above 90%. The “direct activity (inhibition of bacteria growth)” value in data set [1] is “no direct activity”. Further, in data set [2], the LogP was 3.81^[a].

With `O=C(O)CNC(=O)c1sc(Cl)c(Cl)c1Cl` [II.05, N-[(3,4,5-trichloro-2-thienyl)carbonyl]glycine], the chromatographic logP was 2.16 in data set [2] (setting [4]) and 2.14 in data set [2] (setting [5]).

On to `CC(C)OC(=O)CNC(=O)c1sc(Cl)c(Cl)c1Cl` [II.09], for which, in data set [1], the “direct activity (inhibition of bacteria growth)” value is reported as “no direct activity”. For the same compound, in data set [2], the LogP is 3.67^[a].

Regarding `O=C(CNC(=O)c1sc(Cl)c(Cl)c1Cl)OC1CC1` [II.12], in data set [1], the “direct activity (inhibition of bacteria growth)” value is “no direct activity”. Moreover, the LogP in data set [2] is 3.33^[a].

Consider `CCOC(=O)[C@@H](Cc1ccccc1)NC(=O)c1sc(Cl)c(Cl)c1Cl` [II.37], for which the LogP in data set [2] was 5.00^[a].

Regarding `CCCCOC(=O)CNC(=O)c1sc(Cl)c(Cl)c1Cl` [II.11], the “direct activity (inhibition of bacteria growth)” value in data set [1] is “no direct activity”. Moreover, the LogP in data set [2] was 4.18^[a].

Take `CCOC(=O)C(Cc1ccccc1)NC(=O)c1scc(Cl)c1Cl` (racemic) [XVIa.02]: in data set [2], the LogP was 3.99^[a].

Take `O=C(NC(Cc1ccccc1)C(=O)O)c1sc(Cl)c(Cl)c1Cl` (racemic) [II.32]: in data set [2], the LogP is 3.56^[a].

With `CCOC(=O)[C@H](Cc1ccccc1)NC(=O)c1sc(Cl)c(Cl)c1Cl` [II.25], the LogP in data set [2] is 5.00^[a].

For `CC(C)CC(NC(=O)c1sc(Cl)c(Cl)c1Cl)C(=O)O` (racemic) [II.31], in data set [2], the LogP is 3.62^[a].

Consider `C#CCOC(=O)CNC(=O)c1sc(Cl)c(Cl)c1Cl` [II.20], for which the “direct activity (inhibition of bacteria growth)” value in data set [1] is recorded as “no direct activity”. Further, the LogP in data set [2] was 3.13^[a].

In the case of `O=C(CNC(=O)c1sc(Cl)c(Cl)c1Cl)Oc1ccccc1` [II.08], the “direct activity (inhibition of bacteria growth)” value in data set [1] is “no direct activity”. The LogP in data set [2] was 3.87^[a].

As for `CCOC(=O)C(Cc1ccc(O)cc1)NC(=O)c1sc(Cl)c(Cl)c1Cl` (racemic) [II.15], the “direct activity (inhibition of bacteria growth)” value in data set [1] is given as “no direct activity”. For the same compound, the LogP in data set [2] was 3.63^[a].

With `CCOC(=O)CN(C)C(=O)c1sc(Cl)c(Cl)c1Cl` [II.35], the “direct activity (inhibition of bacteria growth)” value in data set [1] is reported as “no direct activity”. Also, the LogP in data set [2] is 3.21^[a].

As for `C=CC1CC1(NC(=O)c1sc(Cl)c(Cl)c1Cl)C(=O)OC` (mixture of isomers) [II.36], the “Efficacy (%)” value in data set [3] was above 90%. Also, the “direct activity (inhibition of bacteria growth)” value in data set [1] is listed as “no direct activity”. For the same compound, the LogP in data set [2] was 3.68^[a].

`N#CCOC(=O)CNC(=O)c1sc(Cl)c(Cl)c1Cl` [II.21]: the “direct activity (inhibition of bacteria growth)” value in data set [1] is reported as “no direct activity”. For the same compound, the LogP in data set [2] is 2.84^[a].

As to `O=C(NC1(C(=O)O)CC1)c1sc(Cl)c(Cl)c1Cl` [II.03], the “direct activity (inhibition of bacteria growth)” value in data set [1] is “no direct activity”.

As for `O=C(CNC(=O)c1sc(Cl)c(Cl)c1Cl)OC1CCC1` [II.16], in data set [1], the “direct activity (inhibition of bacteria growth)” value is on record as “no direct activity”. In addition, the LogP in data set [2] was 3.87^[a].

With `O=C(CNC(=O)c1sc(Cl)c(Cl)c1Cl)OCC(F)(F)F` [II.07], the “direct activity (inhibition of bacteria growth)” value in data set [1] is “no direct activity”. Further, the LogP in data set [2] is 3.60^[a].

Take `CCOC(=O)C(Cc1ccccc1)NC(=O)c1sc(Cl)c(Cl)c1Cl` (racemic) [II.26]: the LogP in data set [2] was 5.04^[a].

With `CCOC(=O)C(CC(C)C)NC(=O)c1sc(Cl)c(Cl)c1Cl` (racemic) [II.04], in data set [1], the “direct activity (inhibition of bacteria growth)” value is reported as “no direct activity”. In data set [2], the LogP is 5.22^[a].

In the case of `O=C(CNC(=O)c1sc(Cl)c(Cl)c1Cl)OCc1ccccc1` [II.13], the “direct activity (inhibition of bacteria growth)” value in data set [1] is “no direct activity”.

As for `C[Si](C)(C)COC(=O)CNC(=O)c1sc(Cl)c(Cl)c1Cl` [II.23], the “direct activity (inhibition of bacteria growth)” value in data set [1] is recorded as “no direct activity”. For the same compound, in data set [2], the LogP was 4.81^[a].
